Reference: publication PMC9317966, “Structure-function analysis of the AMPK activator SC4 and identification of a potent pan AMPK activator” (Biochemical Journal, 2022)

How the values were obtained:
[1] = test system: HepG2 cells and C2C12 myotubes; set-up: method as in PMID 28705990; details: cited from earlier work
[2] = biological target: T1, human GST-AMPK α1β1γ3 (Homo sapiens, UniProt Q13131+Q9Y478); assay: Radiolabel SAMS kinase assay, immobilised GST-AMPK; assay type: biochemical; details: 1 µM compound
T1 construct: triply transfected with full-length AMPK α1 or α2 (NH2-terminal GST fusion, pDEST27 vector); full-length AMPK α1 or α2 (NH2-terminal GST fusion, pDEST27 vector), β1 or β2 (COOH-terminal FLAG fusion, pcDNA3.1 vector); FLAG (C); made in house; host or cells: HEK293T/17 cells, transient triple transfection
From the text: (§1) We generated a series of compounds to investigate whether modification of the SC4 2-hydroxybiphenyl LHS fragment affects isoform selectivity, some of which (MSG008-MSG011) are presented in Table 1. We also synthesised compound MSG012 (example I-3-54 [32]), which was reported to activate α2β2γ1 with ∼100-fold greater potency compared with α1β1γ1. MSG012 differs from SC4 by substitution of the 2-hydroxyphenyl LHS fragment with 3-cyclohexen-4-yl-1-carboxylic acid, and 2-methylbenzoic acid RHS fragment with 1-hydroxy-N,N-dimethylcyclohexan-4-yl-1-carboxamide. Our initial screen involved measuring the activity of recombinant human GST-AMPK complexes expressed in HEK293T/17 cells and immobilised on glutathione-Sepharose (Supplementary Figure S1). Enzyme activity was measured by radiolabelling the synthetic SAMS peptide substrate in the absence or presence of 1 µM compound. Consistent with our previous characterisation, SC4 activated α1β1γ1, α2β1γ1 and α2β2γ1 >2.3-fold, and weakly activated α1β2γ1 1.3-fold (Figure 1A). […] The γ isoform had little influence on AMPK activation by MSG011 as most γ2 and γ3 complexes were activated >2.2-fold at 1 µM, with α1β2γ2 being the only exception (1.6-fold activation). […] Accordingly, MSG010, MSG011 and MSG012 can be classified as pan AMPK activators.
(§2) Adherent HEK293T/17 cells at ∼50% confluency were triply transfected with full-length AMPK α1 or α2 (NH2-terminal GST fusion, pDEST27 vector), β1 or β2 (COOH-terminal FLAG fusion, pcDNA3.1 vector), and γ1, γ2 or γ3 (NH2-terminal HA fusion, pMT2 vector) in the presence of FuGENE HD transfection reagent (Promega) as per the manufacturers protocol. Cells were harvested 48 hours post-transfection by first gently washing in ice cold phosphate buffered saline (PBS; Sigma–Aldrich), then scraping in ice cold lysis buffer (50 mM TRIS pH 7.5, 150 mM NaCl, 10% (v/v) glycerol, 50 mM NaF, 5 mM sodium pyrophosphate, 1% (v/v) Triton X-100, cOmplete protease inhibitor cocktail). Lysates were clarified by centrifugation (16 000g, 3 min, 4°C), flash frozen in liquid N2 and stored at −80°C until analysis. For radioactive kinase assays, AMPK was immobilised on glutathione Sepharose 4B resin (GE Healthcare) by incubation with lysates for 1.5 h at 4°C. Following centrifugation (1000g, 3 min, 4°C), the resin was washed twice in purification buffer (50 mM HEPES pH 7.4, 150 mM NaCl, 10% (v/v) glycerol, 0.02% (v/v) Tween-20), once in 50 mM HEPES pH 7.4 with 0.02% (v/v) Tween-20, then resuspended to a 50% slurry with 50 mM HEPES pH 7.4 and 10 µl added to the activity assays. For in solution kinase assays, α1β1γ1 AMPK was eluted from glutathione-Sepharose by incubating with purification buffer supplemented with 40 mM reduced glutathione (Sigma–Aldrich).
(§3) AMPK activity was determined by phosphorylation of the SAMS peptide (Purar Chemicals, sequence: NH2-HMRSAMSGLHLVKRR-COOH) in a 25 µl reaction volume containing 100 µM SAMS peptide, 5 mM MgCl2, 200 µM ATP, [γ-^32P]-ATP (PerkinElmer) and assay buffer (50 mM HEPES pH 7.4, 1 mM DTT and 0.02% (v/v) Tween-20) and purified AMPK. Phosphotransferase activity was conducted at 30°C for 10 min and reactions were quenched by spotting 15 µl onto phosphocellulose ion-exchange chromatography paper (made in-house), followed by repeated washes in 1% H3PO4 (Merck Millipore). Ultima Gold liquid scintillation fluid (5 ml; PerkinElmer) was added to vials containing dried phosphocellulose papers, and the level of ^32P-transfer to the SAMS peptide was determined using a Tri-Carb 2900TR liquid scintillation counter (PerkinElmer).

[3] = biological target: T2, human GST-AMPK α2β1γ3 (Homo sapiens, UniProt P54646+Q9Y478); assay: Radiolabel SAMS kinase assay, immobilised GST-AMPK; assay type: biochemical; details: 1 µM compound
T2 construct: triply transfected with full-length AMPK α1 or α2 (NH2-terminal GST fusion, pDEST27 vector); full-length AMPK α1 or α2 (NH2-terminal GST fusion, pDEST27 vector), β1 or β2 (COOH-terminal FLAG fusion, pcDNA3.1 vector); FLAG (C); made in house; host or cells: HEK293T/17 cells, transient triple transfection
From the text: as §1, §2, §3

[4] = biological target: T3, human GST-AMPK α2β2γ2 (Homo sapiens, UniProt O43741+P54646); assay: Radiolabel SAMS kinase assay, immobilised GST-AMPK; assay type: biochemical; details: 1 µM compound
T3 construct: triply transfected with full-length AMPK α1 or α2 (NH2-terminal GST fusion, pDEST27 vector); full-length AMPK α1 or α2 (NH2-terminal GST fusion, pDEST27 vector), β1 or β2 (COOH-terminal FLAG fusion, pcDNA3.1 vector); FLAG (C); made in house; host or cells: HEK293T/17 cells, transient triple transfection
From the text: as §1, §2, §3

[5] = biological target: T4, human GST-AMPK α2β1γ2 (Homo sapiens, UniProt P54646+Q9Y478); assay: Radiolabel SAMS kinase assay, immobilised GST-AMPK; assay type: biochemical; details: 1 µM compound
T4 construct: triply transfected with full-length AMPK α1 or α2 (NH2-terminal GST fusion, pDEST27 vector); full-length AMPK α1 or α2 (NH2-terminal GST fusion, pDEST27 vector), β1 or β2 (COOH-terminal FLAG fusion, pcDNA3.1 vector); FLAG (C); made in house; host or cells: HEK293T/17 cells, transient triple transfection
From the text: as §1, §2, §3

[6] = biological target: T5, human GST-AMPK α1β1γ2 (Homo sapiens, UniProt Q13131+Q9Y478); assay: Radiolabel SAMS kinase assay, immobilised GST-AMPK; assay type: biochemical; details: 1 µM compound
T5 construct: triply transfected with full-length AMPK α1 or α2 (NH2-terminal GST fusion, pDEST27 vector); full-length AMPK α1 or α2 (NH2-terminal GST fusion, pDEST27 vector), β1 or β2 (COOH-terminal FLAG fusion, pcDNA3.1 vector); FLAG (C); made in house; host or cells: HEK293T/17 cells, transient triple transfection
From the text: as §1, §2, §3

[7] = biological target: T6, human GST-AMPK α1β2γ2 (Homo sapiens, UniProt O43741+Q13131); assay: Radiolabel SAMS kinase assay, immobilised GST-AMPK; assay type: biochemical; details: 1 µM compound
T6 construct: triply transfected with full-length AMPK α1 or α2 (NH2-terminal GST fusion, pDEST27 vector); full-length AMPK α1 or α2 (NH2-terminal GST fusion, pDEST27 vector), β1 or β2 (COOH-terminal FLAG fusion, pcDNA3.1 vector); FLAG (C); made in house; host or cells: HEK293T/17 cells, transient triple transfection
From the text: as §1, §2, §3

[8] = biological target: T7, human GST-AMPK α2β2γ3 (Homo sapiens, UniProt O43741+P54646); assay: Radiolabel SAMS kinase assay, immobilised GST-AMPK; assay type: biochemical; details: 1 µM compound
T7 construct: triply transfected with full-length AMPK α1 or α2 (NH2-terminal GST fusion, pDEST27 vector); full-length AMPK α1 or α2 (NH2-terminal GST fusion, pDEST27 vector), β1 or β2 (COOH-terminal FLAG fusion, pcDNA3.1 vector); FLAG (C); made in house; host or cells: HEK293T/17 cells, transient triple transfection
From the text: as §1, §2, §3

[9] = biological target: T8, human GST-AMPK α1β2γ3 (Homo sapiens, UniProt O43741+Q13131); assay: Radiolabel SAMS kinase assay, immobilised GST-AMPK; assay type: biochemical; details: 1 µM compound
T8 construct: triply transfected with full-length AMPK α1 or α2 (NH2-terminal GST fusion, pDEST27 vector); full-length AMPK α1 or α2 (NH2-terminal GST fusion, pDEST27 vector), β1 or β2 (COOH-terminal FLAG fusion, pcDNA3.1 vector); FLAG (C); made in house; host or cells: HEK293T/17 cells, transient triple transfection
From the text: as §1, §2, §3

T8 sequence (Q13131 whole entry, the tested form may be a part): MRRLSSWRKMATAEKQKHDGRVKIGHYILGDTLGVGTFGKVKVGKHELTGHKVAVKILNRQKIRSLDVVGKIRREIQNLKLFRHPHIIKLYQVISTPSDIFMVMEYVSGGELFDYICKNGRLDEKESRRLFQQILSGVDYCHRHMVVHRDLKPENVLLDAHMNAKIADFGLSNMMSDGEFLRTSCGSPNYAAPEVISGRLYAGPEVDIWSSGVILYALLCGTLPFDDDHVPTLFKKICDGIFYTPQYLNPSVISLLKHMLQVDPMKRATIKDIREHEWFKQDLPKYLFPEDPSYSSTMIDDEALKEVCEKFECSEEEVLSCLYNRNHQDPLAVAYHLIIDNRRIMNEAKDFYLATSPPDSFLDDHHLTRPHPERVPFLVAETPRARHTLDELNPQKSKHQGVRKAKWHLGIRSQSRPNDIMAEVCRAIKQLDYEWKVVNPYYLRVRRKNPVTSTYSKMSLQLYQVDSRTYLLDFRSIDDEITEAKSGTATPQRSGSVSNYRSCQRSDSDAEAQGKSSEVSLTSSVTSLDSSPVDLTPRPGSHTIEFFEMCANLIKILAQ
T8 sequence (O43741 whole entry, the tested form may be a part): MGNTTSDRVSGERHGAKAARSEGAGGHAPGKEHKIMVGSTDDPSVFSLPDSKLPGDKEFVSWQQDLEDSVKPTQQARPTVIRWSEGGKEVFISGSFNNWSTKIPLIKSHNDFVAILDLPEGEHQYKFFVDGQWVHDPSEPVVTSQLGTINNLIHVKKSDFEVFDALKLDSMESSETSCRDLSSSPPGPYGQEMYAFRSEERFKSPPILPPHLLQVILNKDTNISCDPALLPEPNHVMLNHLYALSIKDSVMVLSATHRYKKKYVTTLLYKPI
T8 sequence (Q9UGI9 whole entry partner, the tested form may be a part): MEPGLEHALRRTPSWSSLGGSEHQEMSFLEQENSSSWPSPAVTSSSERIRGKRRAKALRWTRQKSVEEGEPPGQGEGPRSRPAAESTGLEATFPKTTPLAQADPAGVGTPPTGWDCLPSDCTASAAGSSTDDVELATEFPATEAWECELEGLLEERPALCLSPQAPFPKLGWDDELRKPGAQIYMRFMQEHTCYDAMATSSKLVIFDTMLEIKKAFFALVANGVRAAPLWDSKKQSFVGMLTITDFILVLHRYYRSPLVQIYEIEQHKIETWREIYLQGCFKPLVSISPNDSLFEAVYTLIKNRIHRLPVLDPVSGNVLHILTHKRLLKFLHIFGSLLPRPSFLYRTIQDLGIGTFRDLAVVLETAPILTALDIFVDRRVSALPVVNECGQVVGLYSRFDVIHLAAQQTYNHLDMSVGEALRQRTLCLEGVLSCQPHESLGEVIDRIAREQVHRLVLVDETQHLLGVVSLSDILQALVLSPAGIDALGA
T6 sequence (Q13131 whole entry, the tested form may be a part): as the sequence (Q13131 whole entry, the tested form may be a part) above
T6 sequence (O43741 whole entry, the tested form may be a part): as the sequence (O43741 whole entry, the tested form may be a part) above
T6 sequence (Q9UGJ0 whole entry partner, the tested form may be a part): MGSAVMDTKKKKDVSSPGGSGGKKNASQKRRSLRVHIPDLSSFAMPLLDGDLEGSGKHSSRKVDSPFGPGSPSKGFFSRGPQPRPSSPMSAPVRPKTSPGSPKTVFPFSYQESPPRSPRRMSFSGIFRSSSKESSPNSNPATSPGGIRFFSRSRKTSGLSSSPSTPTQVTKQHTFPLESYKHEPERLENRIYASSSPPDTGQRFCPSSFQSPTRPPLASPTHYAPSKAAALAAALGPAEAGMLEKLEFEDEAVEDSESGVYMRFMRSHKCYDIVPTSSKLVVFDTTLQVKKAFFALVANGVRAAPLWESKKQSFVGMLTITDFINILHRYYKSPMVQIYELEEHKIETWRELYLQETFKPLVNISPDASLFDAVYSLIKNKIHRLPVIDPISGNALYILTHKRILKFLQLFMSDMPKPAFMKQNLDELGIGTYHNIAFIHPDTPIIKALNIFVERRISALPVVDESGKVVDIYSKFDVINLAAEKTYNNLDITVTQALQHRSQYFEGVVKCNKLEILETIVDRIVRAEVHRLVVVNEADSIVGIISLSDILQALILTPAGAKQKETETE
T5 sequence (Q13131 whole entry, the tested form may be a part): as the sequence (Q13131 whole entry, the tested form may be a part) above
T5 sequence (Q9Y478 whole entry, the tested form may be a part): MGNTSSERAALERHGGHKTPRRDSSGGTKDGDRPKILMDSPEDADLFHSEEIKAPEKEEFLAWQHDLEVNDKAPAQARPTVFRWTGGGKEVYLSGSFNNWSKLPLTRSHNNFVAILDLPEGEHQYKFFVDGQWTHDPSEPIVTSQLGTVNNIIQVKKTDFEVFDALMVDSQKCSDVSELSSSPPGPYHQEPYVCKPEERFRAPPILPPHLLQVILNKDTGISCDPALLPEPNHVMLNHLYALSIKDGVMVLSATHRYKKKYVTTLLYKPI
T5 sequence (Q9UGJ0 whole entry partner, the tested form may be a part): as the sequence (Q9UGJ0 whole entry partner, the tested form may be a part) above
T1 sequence (Q13131 whole entry, the tested form may be a part): as the sequence (Q13131 whole entry, the tested form may be a part) above
T1 sequence (Q9Y478 whole entry, the tested form may be a part): as the sequence (Q9Y478 whole entry, the tested form may be a part) above
T1 sequence (Q9UGI9 whole entry partner, the tested form may be a part): as the sequence (Q9UGI9 whole entry partner, the tested form may be a part) above
T3 sequence (P54646 whole entry, the tested form may be a part): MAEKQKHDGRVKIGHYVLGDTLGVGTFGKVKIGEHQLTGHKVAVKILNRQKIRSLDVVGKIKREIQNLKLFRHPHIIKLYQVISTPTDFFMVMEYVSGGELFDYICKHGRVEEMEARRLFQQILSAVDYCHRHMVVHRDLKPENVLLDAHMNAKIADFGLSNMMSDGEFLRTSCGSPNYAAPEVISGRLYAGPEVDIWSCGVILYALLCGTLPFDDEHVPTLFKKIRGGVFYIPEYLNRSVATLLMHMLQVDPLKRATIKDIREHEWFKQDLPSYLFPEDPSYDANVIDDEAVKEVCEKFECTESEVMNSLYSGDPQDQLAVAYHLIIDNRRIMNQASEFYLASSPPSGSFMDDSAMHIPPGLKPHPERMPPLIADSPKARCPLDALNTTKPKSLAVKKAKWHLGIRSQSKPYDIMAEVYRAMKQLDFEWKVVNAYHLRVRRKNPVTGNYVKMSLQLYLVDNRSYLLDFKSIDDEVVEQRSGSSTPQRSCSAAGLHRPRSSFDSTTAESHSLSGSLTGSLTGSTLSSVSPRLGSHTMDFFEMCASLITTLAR
T3 sequence (O43741 whole entry, the tested form may be a part): as the sequence (O43741 whole entry, the tested form may be a part) above
T3 sequence (Q9UGJ0 whole entry partner, the tested form may be a part): as the sequence (Q9UGJ0 whole entry partner, the tested form may be a part) above
T4 sequence (P54646 whole entry, the tested form may be a part): as the sequence (P54646 whole entry, the tested form may be a part) above
T4 sequence (Q9Y478 whole entry, the tested form may be a part): as the sequence (Q9Y478 whole entry, the tested form may be a part) above
T4 sequence (Q9UGJ0 whole entry partner, the tested form may be a part): as the sequence (Q9UGJ0 whole entry partner, the tested form may be a part) above
T7 sequence (P54646 whole entry, the tested form may be a part): as the sequence (P54646 whole entry, the tested form may be a part) above
T7 sequence (O43741 whole entry, the tested form may be a part): as the sequence (O43741 whole entry, the tested form may be a part) above
T7 sequence (Q9UGI9 whole entry partner, the tested form may be a part): as the sequence (Q9UGI9 whole entry partner, the tested form may be a part) above
T2 sequence (P54646 whole entry, the tested form may be a part): as the sequence (P54646 whole entry, the tested form may be a part) above
T2 sequence (Q9Y478 whole entry, the tested form may be a part): as the sequence (Q9Y478 whole entry, the tested form may be a part) above
T2 sequence (Q9UGI9 whole entry partner, the tested form may be a part): as the sequence (Q9UGI9 whole entry partner, the tested form may be a part) above

Row | Structure (SMILES) | α-Thr172 phosphorylation ([1]; above 1 µM) | AMPK signalling ([1]; below 1 µM, in the absence of increased α-Thr172 phosphorylation) | fold AMPK activation relative to vehicle [2] | fold AMPK activation relative to vehicle [3] | fold AMPK activation relative to vehicle [4] | fold AMPK activation relative to vehicle [5] | fold AMPK activation relative to vehicle [6] | fold AMPK activation relative to vehicle [7] | fold AMPK activation relative to vehicle [8] | fold AMPK activation relative to vehicle [9]
1 | O[C@@H]1CO[C@H]2[C@@H]1OC[C@H]2Oc1nc2nc(-c3ccc(-c4ccccc4)cc3)c(Cl)cc2[nH]1 [MK-8722, reference compound] | elevated α-Thr172 | stimulate AMPK signalling | – | – | – | – | – | – | – | –
2 | CC(=O)NC1CC=C(c2ccc(-c3nc4nc(Oc5ccc(C)c(C(=O)O)c5)[nH]c4cc3Cl)cc2)CC1 (stereo not shown) [MSG011, 5-((5-(4′-Acetamido-2′,3′,4′,5′-tetrahydro-[1,1′-biphenyl]-4-yl)-6-chloro-1H-imidazo[4,5-b]pyridin-2-yl)oxy)-2-methylbenzoic acid] | – | – | > 2.2 fold | > 2.2 fold | > 2.2 fold | > 2.2 fold | > 2.2 fold | 1.6 fold | > 2.2 fold | > 2.2 fold
